For nine compounds, Emax and IC50 results are on record in US20260091026A1, “METHODS OF TREATING INFLAMMATORY DISEASES” (INTERLINE THERAPEUTICS, INC., priority 2023, published 2026).

The structures appear in SMILES notation.

For assay [1], the target named is T1, RIPK2 (KD)/XIAP (BIR2) (Homo sapiens, UniProt O43353).
T1 construct: made in house; host or cells: baculovirus-infected Sf9 cells
The experiment in a line: RIPK2-XIAP binding competition PPI assay (TR-FRET). The following applies: for Emax: 50 nM of GSK583 = -100% activity, read-out: PPI Amax; for IC50: GST-RIPK2 / His-XIAP (BIR2)-avi, 120 min at 23° C. Summed up:
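TR-FRET competition between GST-RIPK2 (aa 1-310, 1 nM) and His-XIAP BIR2-avi (aa 152-231, 25 nM), both Sf9-expressed, detected with anti-His-XL665 and anti-GST-Tb in Tris pH 7.5 buffer with MgCl2, DTT and vanadate. Incubation was 120 min at 23 °C; the 665/520 nm ratio was normalized to no inhibitor (0%) and 50 nM GSK583 (−100%).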
In general terms: TR-FRET usually uses a lanthanide donor and a delayed reading to cut background.

Assay [2] relates to THP1-Dual cells, NF-κB pathway (SEAP). The assay can be described thus: THP-1 Dual cell SEAP assay (L18-MDP stimulated). As to conditions: Homo sapiens, 10 ng/mL L18-MDP, 20-24 h, SEAP readout, read-out: IFNγ THP1 IC50. It counts as cell-based. In short, it runs like this:
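About 25,000 THP1-Dual cells per well were preincubated 30 min with serially diluted compound, then stimulated overnight (20-24 h, 37 °C) with 10 ng/mL L18-MDP (final). NF-κB-driven SEAP in supernatant was read with QUANTI-Blue at OD 620-655 nm after 2 h; % inhibition versus DMSO/L18-MDP wells was fitted by non-linear regression to give IC50.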

T1 sequence (O43353 1-310): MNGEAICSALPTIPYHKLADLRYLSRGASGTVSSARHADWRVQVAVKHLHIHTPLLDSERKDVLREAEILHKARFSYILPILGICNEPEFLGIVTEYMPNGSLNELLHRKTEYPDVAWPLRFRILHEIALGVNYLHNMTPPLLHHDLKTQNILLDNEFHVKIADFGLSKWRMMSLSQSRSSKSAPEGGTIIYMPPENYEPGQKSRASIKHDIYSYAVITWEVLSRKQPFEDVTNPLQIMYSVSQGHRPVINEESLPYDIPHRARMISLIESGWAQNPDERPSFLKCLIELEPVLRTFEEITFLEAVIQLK

Regarding `C[C@@H](NC(=O)c1cc(-c2cnc3cc(OCCO)c(S(=O)(=O)C(C)(C)C)cn23)nn1C)c1nccs1` [Example 94, (R)-3-(6-(tert-butylsulfonyl)-7-(2-hydroxyethoxy)imidazo[1,2-a]pyridin-3-yl)-1-methyl-N-(1-(thiazol-2-yl)ethyl)-1H-pyrazole-5-carboxamide], in assay [1], the Emax was at least 80% and the IC50 lay within 10 to 100 nM. In assay [2], the IC50 lay in the range of 100 to 500 nM.
The like results for `CCn1nc(-c2cnc3cc(OC)c(S(=O)(=O)C(C)(C)C)cn23)cc1C(=O)N[C@H](C)c1ccccn1` [Example 95, (R)-3-(6-(tert-butylsulfonyl)-7-methoxyimidazo[1,2-a]pyridin-3-yl)-1-ethyl-N-(1-(pyridin-2-yl)ethyl)-1H-pyrazole-5-carboxamide] were, in that order, at least 80%, below 10 nM and below 100 nM.
The corresponding values for `CCn1nc(-c2cnc3cc(OC)c(S(=O)(=O)C(C)(C)C)cn23)cc1C(=O)N[C@H](C)c1ncccn1` [Example 96, (R)-3-(6-(tert-butylsulfonyl)-7-methoxyimidazo[1,2-a]pyridin-3-yl)-1-ethyl-N-(1-(pyrimidin-2-yl)ethyl)-1H-pyrazole-5-carboxamide] are at least 80%, below 10 nM and below 100 nM.
In the case of `CCn1nc(-c2cnc3cc(OC)c(S(=O)(=O)C(C)(C)C)cn23)cc1C(=O)N[C@H](C)c1ncccc1F` [Example 97, (R)-3-(6-(tert-butylsulfonyl)-7-methoxyimidazo[1,2-a]pyridin-3-yl)-1-ethyl-N-(1-(3-fluoropyridin-2-yl)ethyl)-1H-pyrazole-5-carboxamide], in assay [1], the Emax is at least 80%. Also, the figures for the IC50 in assay [1] and in assay [2] were below 10 nM and below 100 nM, respectively.
The corresponding values for `CCn1nc(-c2cnc3cc(OC)c(S(=O)(=O)C(C)(C)C)cn23)cc1C(=O)N[C@H](C)c1nccs1` [Example 98, (R)-3-(6-(tert-butylsulfonyl)-7-methoxyimidazo[1,2-a]pyridin-3-yl)-1-ethyl-N-(1-(thiazol-2-yl)ethyl)-1H-pyrazole-5-carboxamide] are at least 80%, below 10 nM and below 100 nM.
For `COc1cc2ncc(-c3cc(C(=O)N[C@H](C)c4ccccn4)n(C4CC4)n3)n2cc1S(=O)(=O)C(C)(C)C` [Example 99, (R)-3-(6-(tert-butylsulfonyl)-7-methoxyimidazo[1,2-a]pyridin-3-yl)-1-cyclopropyl-N-(1-(pyridin-2-yl)ethyl)-1H-pyrazole-5-carboxamide], the Emax in assay [1] was at least 80%. Also, the values for the IC50 in assay [1] and in assay [2] were below 10 nM and below 100 nM, respectively.
`COc1cc2ncc(-c3cc(C(=O)N[C@H](C)c4ncccn4)n(C4CC4)n3)n2cc1S(=O)(=O)C(C)(C)C` [Example 100, (R)-3-(6-(tert-butylsulfonyl)-7-methoxyimidazo[1,2-a]pyridin-3-yl)-1-cyclopropyl-N-(1-(pyrimidin-2-yl)ethyl)-1H-pyrazole-5-carboxamide]: in assay [1], the Emax is at least 80% and the IC50 is below 10 nM. Also, the IC50 in assay [2] was below 100 nM.
The like results for `COc1cc2ncc(-c3cc(C(=O)N[C@H](C)c4ccccn4)n(C(C)C)n3)n2cc1S(=O)(=O)C(C)(C)C` [Example 101, (R)-3-(6-(tert-butylsulfonyl)-7-methoxyimidazo[1,2-a]pyridin-3-yl)-1-isopropyl-N-(1-(pyridin-2-yl)ethyl)-1H-pyrazole-5-carboxamide] were, in that order, at least 80%, below 10 nM and below 100 nM.
The like results for `COc1cc2ncc(-c3cc(C(=O)N[C@H](C)c4ncccn4)n(C(C)C)n3)n2cc1S(=O)(=O)C(C)(C)C` [Example 102, (R)-3-(6-(tert-butylsulfonyl)-7-methoxyimidazo[1,2-a]pyridin-3-yl)-1-isopropyl-N-(1-(pyrimidin-2-yl)ethyl)-1H-pyrazole-5-carboxamide] were, in that order, at least 80%, below 10 nM and below 100 nM.

For orientation: IC50 means the concentration that gives 50% inhibition.
